What was measured:
CCRF-CEM = experiment: NCI single dose (10 µM) SRB screen; type: cell-based, human; details: leukaemia, 48 h
HL-60(TB) = experiment: NCI single dose (10 µM) SRB screen; type: cell-based, human; details: leukaemia, 48 h
K-562 = experiment: NCI single dose (10 µM) SRB screen; type: cell-based, human; details: leukaemia, 48 h
MOLT-4 = experiment: NCI single dose (10 µM) SRB screen; type: cell-based, human; details: leukaemia, 48 h
RPMI-8226 = experiment: NCI single dose (10 µM) SRB screen; type: cell-based, human; details: leukaemia, 48 h
SR = experiment: NCI single dose (10 µM) SRB screen; type: cell-based, human; details: leukaemia, 48 h
A549/ATCC = experiment: NCI single dose (10 µM) SRB screen; type: cell-based, human; details: non-small cell lung cancer, 48 h
EKVX = experiment: NCI single dose (10 µM) SRB screen; type: cell-based, human; details: non-small cell lung cancer, 48 h
HOP-62 = experiment: NCI single dose (10 µM) SRB screen; type: cell-based, human; details: non-small cell lung cancer, 48 h
HOP-92 = experiment: NCI single dose (10 µM) SRB screen; type: cell-based, human; details: non-small cell lung cancer, 48 h
NCI-H226 = experiment: NCI single dose (10 µM) SRB screen; type: cell-based, human; details: non-small cell lung cancer, 48 h
NCI-H23 = experiment: NCI single dose (10 µM) SRB screen; type: cell-based, human; details: non-small cell lung cancer, 48 h
NCI-H322M = experiment: NCI single dose (10 µM) SRB screen; type: cell-based; details: non-small cell lung cancer, 48 h
NCI-H460 = experiment: NCI single dose (10 µM) SRB screen; type: cell-based, human; details: non-small cell lung cancer, 48 h
NCI-H522 = experiment: NCI single dose (10 µM) SRB screen; type: cell-based, human; details: non-small cell lung cancer, 48 h
COLO 205 = experiment: NCI single dose (10 µM) SRB screen; type: cell-based, human; details: colon cancer, 48 h
HCC-2998 = experiment: NCI single dose (10 µM) SRB screen; type: cell-based, human; details: colon cancer, 48 h
HCT-116 = experiment: NCI single dose (10 µM) SRB screen; type: cell-based, human; details: colon cancer, 48 h
HCT-15 = experiment: NCI single dose (10 µM) SRB screen; type: cell-based, human; details: colon cancer, 48 h
HT29 = experiment: NCI single dose (10 µM) SRB screen; type: cell-based, human; details: colon cancer, 48 h
KM12 = experiment: NCI single dose (10 µM) SRB screen; type: cell-based, human; details: colon cancer, 48 h
SW-620 = experiment: NCI single dose (10 µM) SRB screen; type: cell-based, human; details: colon cancer, 48 h
SF-268 = experiment: NCI single dose (10 µM) SRB screen; type: cell-based, human; details: CNS cancer, 48 h
SF-295 = experiment: NCI single dose (10 µM) SRB screen; type: cell-based, human; details: CNS cancer, 48 h
SF-539 = experiment: NCI single dose (10 µM) SRB screen; type: cell-based, human; details: CNS cancer, 48 h
SNB-19 = experiment: NCI single dose (10 µM) SRB screen; type: cell-based, human; details: CNS cancer, 48 h
SNB-75 = experiment: NCI single dose (10 µM) SRB screen; type: cell-based, human; details: CNS cancer, 48 h
U251 = experiment: NCI single dose (10 µM) SRB screen; type: cell-based, human; details: CNS cancer, 48 h
LOX IMVI = experiment: NCI single dose (10 µM) SRB screen; type: cell-based, human; details: melanoma, 48 h
MALME-3M = experiment: NCI single dose (10 µM) SRB screen; type: cell-based, human; details: melanoma, 48 h
M14 = experiment: NCI single dose (10 µM) SRB screen; type: cell-based, human; details: melanoma, 48 h
MDA-MB-435 = experiment: NCI single dose (10 µM) SRB screen; type: cell-based, human; details: melanoma, 48 h
SK-MEL-2 = experiment: NCI single dose (10 µM) SRB screen; type: cell-based, human; details: melanoma, 48 h
SK-MEL-28 = experiment: NCI single dose (10 µM) SRB screen; type: cell-based, human; details: melanoma, 48 h
SK-MEL-5 = experiment: NCI single dose (10 µM) SRB screen; type: cell-based, human; details: melanoma, 48 h
UACC-257 = experiment: NCI single dose (10 µM) SRB screen; type: cell-based, human; details: melanoma, 48 h
UACC-62 = experiment: NCI single dose (10 µM) SRB screen; type: cell-based, human; details: melanoma, 48 h
IGROV1 = experiment: NCI single dose (10 µM) SRB screen; type: cell-based, human; details: ovarian cancer, 48 h
OVCAR-3 = experiment: NCI single dose (10 µM) SRB screen; type: cell-based, human; details: ovarian cancer, 48 h
OVCAR-4 = experiment: NCI single dose (10 µM) SRB screen; type: cell-based, human; details: ovarian cancer, 48 h
OVCAR-5 = experiment: NCI single dose (10 µM) SRB screen; type: cell-based, human; details: ovarian cancer, 48 h
OVCAR-8 = experiment: NCI single dose (10 µM) SRB screen; type: cell-based, human; details: ovarian cancer, 48 h
NCI/ADR-RES = experiment: NCI single dose (10 µM) SRB screen; type: cell-based, human; details: ovarian cancer, 48 h
SK-OV-3 = experiment: NCI single dose (10 µM) SRB screen; type: cell-based, human; details: ovarian cancer, 48 h
786-0 = experiment: NCI single dose (10 µM) SRB screen; type: cell-based, human; details: renal cancer, 48 h
A498 = experiment: NCI single dose (10 µM) SRB screen; type: cell-based, human; details: renal cancer, 48 h
ACHN = experiment: NCI single dose (10 µM) SRB screen; type: cell-based, human; details: renal cancer, 48 h
CAKI-1 = experiment: NCI single dose (10 µM) SRB screen; type: cell-based, human; details: renal cancer, 48 h
RXF 393 = experiment: NCI single dose (10 µM) SRB screen; type: cell-based, human; details: renal cancer, 48 h
SN12C = experiment: NCI single dose (10 µM) SRB screen; type: cell-based, human; details: renal cancer, 48 h
TK-10 = experiment: NCI single dose (10 µM) SRB screen; type: cell-based, human; details: renal cancer, 48 h
UO-31 = experiment: NCI single dose (10 µM) SRB screen; type: cell-based, human; details: renal cancer, 48 h
PC-3 = experiment: NCI single dose (10 µM) SRB screen; type: cell-based, human; details: prostate cancer, 48 h
DU-145 = experiment: NCI single dose (10 µM) SRB screen; type: cell-based, human; details: prostate cancer, 48 h
MCF7 = experiment: NCI single dose (10 µM) SRB screen; type: cell-based, human; details: breast cancer, 48 h
MDA-MB-231 = experiment: NCI single dose (10 µM) SRB screen; type: cell-based, human; details: breast cancer, 48 h
HS578T = experiment: NCI single dose (10 µM) SRB screen; type: cell-based, human; details: breast cancer, 48 h
BT-549 = experiment: NCI single dose (10 µM) SRB screen; type: cell-based, human; details: breast cancer, 48 h
T-47D = experiment: NCI single dose (10 µM) SRB screen; type: cell-based, human; details: breast cancer, 48 h
MDA-MB-468 = experiment: NCI single dose (10 µM) SRB screen; type: cell-based, human; details: breast cancer, 48 h
NCI 60 cancer cell lines = experiment: NCI single dose (10 µM) SRB screen, mean over panel; type: cell-based, human; details: mean over 60 cell lines, 48 h
Staphylococcus aureus = experiment: Agar well diffusion method
Bacillus subtilis = experiment: Agar well diffusion method; details: relative to ciprofloxacin
Escherichia coli = experiment: Agar well diffusion method; details: relative to ciprofloxacin
Pseudomonas aeruginosa = experiment: Agar well diffusion method; details: relative to ciprofloxacin
Candida albicans = experiment: Agar well diffusion method; details: relative to clotrimazole
Aspergillus flavus = experiment: Agar well diffusion method; details: relative to clotrimazole

CCCC1=C(C(=O)OCC)C(c2cccc(C#N)c2)C(C(=O)OC)=C(C)N1 (racemic) [Compound 2f, (±)-3-Ethyl 5-methyl 4-(3-cyanophenyl)-6-methyl-2-propyl-1,4-dihydropyridine-3,5-dicarboxylate]
GI% CCRF-CEM (CCRF-CEM): – (Only GI% ≥ 10 are shown)
GI% HL-60(TB) (HL-60(TB)): 11%
GI% K-562 (K-562): – (Only GI% ≥ 10 are shown)
GI% MOLT-4 (MOLT-4): 14%
GI% RPMI-8226 (RPMI-8226): 12%
GI% SR (SR): – (Only GI% ≥ 10 are shown)
GI% A549/ATCC (A549/ATCC): – (Only GI% ≥ 10 are shown)
GI% EKVX (EKVX): – (Only GI% ≥ 10 are shown)
GI% HOP-62 (HOP-62): – (Only GI% ≥ 10 are shown)
GI% HOP-92 (HOP-92): – (Only GI% ≥ 10 are shown)
GI% NCI-H226 (NCI-H226): – (Only GI% ≥ 10 are shown)
GI% NCI-H23 (NCI-H23): – (Only GI% ≥ 10 are shown)
GI% NCI-H322M (NCI-H322M): – (Only GI% ≥ 10 are shown)
GI% NCI-H460 (NCI-H460): – (Only GI% ≥ 10 are shown)
GI% NCI-H522 (NCI-H522): – (Only GI% ≥ 10 are shown)
GI% COLO 205 (COLO 205): – (Only GI% ≥ 10 are shown)
GI% HCC-2998 (HCC-2998): – (Only GI% ≥ 10 are shown)
GI% HCT-116 (HCT-116): 11%
GI% HCT-15 (HCT-15): – (Only GI% ≥ 10 are shown)
GI% HT29 (HT29): – (Only GI% ≥ 10 are shown)
GI% KM12 (KM12): – (Only GI% ≥ 10 are shown)
GI% SW-620 (SW-620): – (Only GI% ≥ 10 are shown)
GI% SF-268 (SF-268): – (Only GI% ≥ 10 are shown)
GI% SF-295 (SF-295): – (Only GI% ≥ 10 are shown)
GI% SF-539 (SF-539): – (Only GI% ≥ 10 are shown)
GI% SNB-19 (SNB-19): – (Only GI% ≥ 10 are shown)
GI% SNB-75 (SNB-75): 37%
GI% U251 (U251): – (Only GI% ≥ 10 are shown)
GI% LOX IMVI (LOX IMVI): – (Only GI% ≥ 10 are shown)
GI% MALME-3M (MALME-3M): – (Only GI% ≥ 10 are shown)
GI% M14 (M14): – (Only GI% ≥ 10 are shown)
GI% MDA-MB-435 (MDA-MB-435): – (Only GI% ≥ 10 are shown)
GI% SK-MEL-2 (SK-MEL-2): – (Only GI% ≥ 10 are shown)
GI% SK-MEL-28 (SK-MEL-28): – (Only GI% ≥ 10 are shown)
GI% SK-MEL-5 (SK-MEL-5): – (Only GI% ≥ 10 are shown)
GI% UACC-257 (UACC-257): – (Only GI% ≥ 10 are shown)
GI% UACC-62 (UACC-62): 21%
GI% IGROV1 (IGROV1): – (Only GI% ≥ 10 are shown)
GI% OVCAR-3 (OVCAR-3): – (Only GI% ≥ 10 are shown)
GI% OVCAR-4 (OVCAR-4): – (Only GI% ≥ 10 are shown)
GI% OVCAR-5 (OVCAR-5): – (Only GI% ≥ 10 are shown)
GI% OVCAR-8 (OVCAR-8): – (Only GI% ≥ 10 are shown)
GI% NCI/ADR-RES (NCI/ADR-RES): – (Only GI% ≥ 10 are shown)
GI% SK-OV-3 (SK-OV-3): – (Only GI% ≥ 10 are shown)
GI% 786-0 (786-0): – (Only GI% ≥ 10 are shown)
GI% A498 (A498): – (Only GI% ≥ 10 are shown)
GI% ACHN (ACHN): – (Only GI% ≥ 10 are shown)
GI% CAKI-1 (CAKI-1): 18%
GI% RXF 393 (RXF 393): – (Only GI% ≥ 10 are shown)
GI% SN12C (SN12C): – (Only GI% ≥ 10 are shown)
GI% TK-10 (TK-10): – (Only GI% ≥ 10 are shown)
GI% UO-31 (UO-31): 13%
GI% PC-3 (PC-3): 23%
GI% DU-145 (DU-145): – (Only GI% ≥ 10 are shown)
GI% MCF7 (MCF7): – (Only GI% ≥ 10 are shown)
GI% MDA-MB-231 (MDA-MB-231): – (Only GI% ≥ 10 are shown)
GI% HS578T (HS578T): – (Only GI% ≥ 10 are shown)
GI% BT-549 (BT-549): – (Only GI% ≥ 10 are shown)
GI% T-47D (T-47D): – (Only GI% ≥ 10 are shown)
GI% MDA-MB-468 (MDA-MB-468): – (Only GI% ≥ 10 are shown)
Mean GI% (NCI 60 cancer cell lines): 1%
melting point: 121 to 122 °C
zone of inhibition at 1000 µg/mL (Staphylococcus aureus; Staphylococcus aureus, 24 h, read-out: Diameter of inhibition zone, S. aureus): 6 mm
% activity index, S. aureus (Staphylococcus aureus; relative to ciprofloxacin): 25%
% activity index, B. subtilis (Bacillus subtilis): – (Values below 25 are of limited value and not shown as they refer either to inactive or non-diffusing compounds)
% activity index, E. coli (Escherichia coli): – (Values below 25 are of limited value and not shown as they refer either to inactive or non-diffusing compounds)
% activity index, P. aeruginosa (Pseudomonas aeruginosa): – (Values below 25 are of limited value and not shown as they refer either to inactive or non-diffusing compounds)
% activity index, C. albicans (Candida albicans): – (Values below 25 are of limited value and not shown as they refer either to inactive or non-diffusing compounds)
% activity index, A. flavus (Aspergillus flavus): – (Values below 25 are of limited value and not shown as they refer either to inactive or non-diffusing compounds)

From paper PMC9481151, “Discovery of new symmetrical and asymmetrical nitrile-containing 1,4-dihydropyridine derivatives as dual kinases and P-glycoprotein inhibitors: synthesis, in vitro assays, and in silico studies” (Journal of Enzyme Inhibition and Medicinal Chemistry, 2022)
